Experiment: Leaching test: 100 g fabric soaked in 10 liters stagnant distilled water, 3 days (72 hours)
Format: physicochemical
Description: (§1) The test procedure for leaching was as follows: 100 g (grams) of fabric as well as control fabrics were soaked in 10 liters of stagnant distilled water in a closed wide mouth jar. After 3 days (72 hours), the water samples were tested for leached substances as per standard analytical methods.
as §1, with “methods. A weight of 100 g fabric was chosen because in the preferred embodiment of the water filter as described further below, each filter comprises a strip of fabric with 210 g/m^2, 3 meters long and 0.16 meters wide, which corresponds to 100 g of fabric.” for “methods.”

polyglucosamine [chitosan]
Leaching of active ingredients (in ppm) (0.2% each in mixture (o.w.f), exhaust 80° C., 60 min, curing 180° C., 2 min, unwashed): 9 ppm | Leaching of active ingredients (in ppm) (0.5% each in mixture (o.w.f), exhaust 80° C., 60 min, curing 180° C., 2 min, unwashed): 12 ppm | Leaching of active ingredients (in ppm) (1.0% each in mixture (o.w.f), exhaust 80° C., 60 min, curing 180° C., 2 min, unwashed): 16 ppm | Leaching of active ingredients (in ppm) (exhaust 60° C., solution dosage 1% o.w.f, process time 60 min): 21 ppm | Leaching of active ingredients (in ppm) (exhaust 60° C., solution dosage 1% o.w.f, process time 90 min): 13 ppm | Leaching of active ingredients (in ppm) (exhaust 60° C., solution dosage 1% o.w.f, process time 120 min): 14 ppm | Leaching of active ingredients (in ppm) (exhaust 60° C., solution dosage 1% o.w.f, process time 180 min): 12 ppm | Leaching of active ingredients (in ppm) (exhaust 60° C., solution dosage 1% o.w.f, process time 240 min): 13 ppm | Leaching of active ingredients (in ppm) (exhaust 80° C., 1% o.w.f, 60 min, curing 170° C., curing dwell time 0.5 min): 28 ppm | Leaching of active ingredients (in ppm) (exhaust 80° C., 1% o.w.f, 60 min, curing 170° C., curing dwell time 1.0 min): 26 ppm | Leaching of active ingredients (in ppm) (exhaust 80° C., 1% o.w.f, 60 min, curing 170° C., curing dwell time 1.5 min): 20 ppm | Leaching of active ingredients (in ppm) (exhaust 80° C., 1% o.w.f, 60 min, curing 170° C., curing dwell time 2.0 min): 13 ppm | Leaching of active ingredients (in ppm) (exhaust 80° C., 1% o.w.f, 60 min, curing 170° C., curing dwell time 2.5 min): 18 ppm | Leaching of active ingredients (in ppm) (exhaust 80° C., 1% o.w.f, 60 min, curing 170° C., curing dwell time 3.0 min): 18 ppm | Leaching of active ingredients (in ppm) (exhaust 80° C., 1% o.w.f, 60 min, curing 180° C., curing dwell time 0.5 min): 21 ppm | Leaching of active ingredients (in ppm) (exhaust 80° C., 1% o.w.f, 60 min, curing 180° C., curing dwell time 1.0 min): 13 ppm | Leaching of active ingredients (in ppm) (exhaust 80° C., 1% o.w.f, 60 min, curing 180° C., curing dwell time 1.5 min): 14 ppm | Leaching of active ingredients (in ppm) (exhaust 80° C., 1% o.w.f, 60 min, curing 180° C., curing dwell time 2.0 min): 3 ppm | Leaching of active ingredients (in ppm) (exhaust 80° C., 1% o.w.f, 60 min, curing 180° C., curing dwell time 2.5 min): 12 ppm | Leaching of active ingredients (in ppm) (exhaust 80° C., 1% o.w.f, 60 min, curing 180° C., curing dwell time 3.0 min): 12 ppm | Leaching of active ingredients (in ppm) (exhaust 80° C., 1% o.w.f, 60 min, curing dwell time at 190° C. (title): 0.5 min): 20 ppm | Leaching of active ingredients (in ppm) (exhaust 80° C., 1% o.w.f, 60 min, curing dwell time at 190° C. (title): 1.0 min): 13 ppm | Leaching of active ingredients (in ppm) (exhaust 80° C., 1% o.w.f, 60 min, curing dwell time at 190° C. (title): 1.5 min): 12 ppm | Leaching of active ingredients (in ppm) (exhaust 80° C., 1% o.w.f, 60 min, curing dwell time at 190° C. (title): 2.0 min): 11 ppm | Leaching of active ingredients (in ppm) (exhaust 80° C., 1% o.w.f, 60 min, curing dwell time at 190° C. (title): 2.5 min): 25 ppm | Leaching of active ingredients (in ppm) (exhaust 80° C., 1% o.w.f, 60 min, curing dwell time at 190° C. (title): 3.0 min): 35 ppm | Leaching of active ingredients (in ppm) (exhaust 80° C., 60 min, dosage 1% o.w.f (test up to 5% o.w.f)): 2 ppm | Leaching of active ingredients (in ppm) (exhaust 80° C., 60 min, dosage 2% o.w.f): 17 ppm | Leaching of active ingredients (in ppm) (exhaust 80° C., 60 min, dosage 3% o.w.f): 41 ppm | Leaching of active ingredients (in ppm) (exhaust 80° C., 60 min, dosage 4% o.w.f): 42 ppm | Leaching of active ingredients (in ppm) (exhaust 80° C., 60 min, dosage 5% o.w.f): 72 ppm | Leaching of active ingredients (in ppm) (exhaust 80 ° C., solution dosage 1% o.w.f, process time 10 min): 37 ppm | Leaching of active ingredients (in ppm) (exhaust 80 ° C., solution dosage 1% o.w.f, process time 20 min): 25 ppm | Leaching of active ingredients (in ppm) (exhaust 80 ° C., solution dosage 1% o.w.f, process time 30 min): 21 ppm | Leaching of active ingredients (in ppm) (exhaust 80 ° C., solution dosage 1% o.w.f, process time 40 min): 16 ppm | Leaching of active ingredients (in ppm) (exhaust 80 ° C., solution dosage 1% o.w.f, process time 50 min): 12 ppm | Leaching of active ingredients (in ppm) (exhaust 80 ° C., solution dosage 1% o.w.f, process time 55 min): 5 ppm | Leaching of active ingredients (in ppm) (exhaust 80 ° C., solution dosage 1% o.w.f, process time 60 min): 3 ppm | Leaching of active ingredients (in ppm) (exhaust 80 ° C., solution dosage 1% o.w.f, process time 70 min): 2 ppm | Leaching of active ingredients (in ppm) (exhaust 80 ° C., solution dosage 1% o.w.f, process time 80 min): 5 ppm | Leaching of active ingredients (in ppm) (exhaust 80 ° C., solution dosage 1% o.w.f, process time 90 min): 8 ppm | limit on the quantity of the agent that can be adhered to the textile in a non-leaching or substantially non-leaching manner (from Experimental examples I.1 and I.4): about 0.2 % o.w.f. | Leaching of active ingredient (in ppm) (solution dosage 0.10% o.w.f, exhaust temperature 60° C., process time 60 min): 0 ppm | Leaching of active ingredient (in ppm) (solution dosage 0.10% o.w.f, exhaust temperature 65° C., process time 60 min): 0 ppm | Leaching of active ingredient (in ppm) (solution dosage 0.10% o.w.f, exhaust temperature 70° C., process time 60 min): 0 ppm | Leaching of active ingredient (in ppm) (solution dosage 0.10% o.w.f, exhaust temperature 75° C., process time 60 min): 0 ppm | Leaching of active ingredient (in ppm) (solution dosage 0.10% o.w.f, exhaust temperature 80° C., process time 60 min): 0 ppm | Leaching of active ingredient (in ppm) (solution dosage 0.10% o.w.f, exhaust temperature 85° C., process time 60 min): 1 ppm | Leaching of active ingredient (in ppm) (solution dosage 0.10% o.w.f, exhaust temperature 90° C., process time 60 min): 2 ppm | Leaching of active ingredient (in ppm) (solution dosage 0.10% o.w.f, exhaust temperature 95° C., process time 60 min): 2 ppm | Leaching of active ingredient (in ppm) (solution dosage 0.20% o.w.f, exhaust temperature 60° C., process time 60 min): 0 ppm | Leaching of active ingredient (in ppm) (solution dosage 0.20% o.w.f, exhaust temperature 65° C., process time 60 min): 0 ppm | Leaching of active ingredient (in ppm) (solution dosage 0.20% o.w.f, exhaust temperature 70° C., process time 60 min): 0 ppm | Leaching of active ingredient (in ppm) (solution dosage 0.20% o.w.f, exhaust temperature 75° C., process time 60 min): 0 ppm | Leaching of active ingredient (in ppm) (solution dosage 0.20% o.w.f, exhaust temperature 80° C., process time 60 min): 0 ppm | Leaching of active ingredient (in ppm) (solution dosage 0.20% o.w.f, exhaust temperature 85° C., process time 60 min): 2 ppm | Leaching of active ingredient (in ppm) (solution dosage 0.20% o.w.f, exhaust temperature 90° C., process time 60 min): 3 ppm | Leaching of active ingredient (in ppm) (solution dosage 0.20% o.w.f, exhaust temperature 95° C., process time 60 min): 4 ppm | Leaching of active ingredient (in ppm) (solution dosage 0.50% o.w.f, exhaust temperature 60° C., process time 60 min): 1 ppm | Leaching of active ingredient (in ppm) (solution dosage 0.50% o.w.f, exhaust temperature 65° C., process time 60 min): 1 ppm | Leaching of active ingredient (in ppm) (solution dosage 0.50% o.w.f, exhaust temperature 70° C., process time 60 min): 1 ppm | Leaching of active ingredient (in ppm) (solution dosage 0.50% o.w.f, exhaust temperature 75° C., process time 60 min): 1 ppm | Leaching of active ingredient (in ppm) (solution dosage 0.50% o.w.f, exhaust temperature 80° C., process time 60 min): 1 ppm | Leaching of active ingredient (in ppm) (solution dosage 0.50% o.w.f, exhaust temperature 85° C., process time 60 min): 4 ppm | Leaching of active ingredient (in ppm) (solution dosage 0.50% o.w.f, exhaust temperature 90° C., process time 60 min): 5 ppm | Leaching of active ingredient (in ppm) (solution dosage 0.50% o.w.f, exhaust temperature 95° C., process time 60 min): 7 ppm | Leaching of active ingredient (in ppm) (solution dosage 0.80% o.w.f, exhaust temperature 60° C., process time 60 min): 2 ppm | Leaching of active ingredient (in ppm) (solution dosage 0.80% o.w.f, exhaust temperature 65° C., process time 60 min): 2 ppm | Leaching of active ingredient (in ppm) (solution dosage 0.80% o.w.f, exhaust temperature 70° C., process time 60 min): 2 ppm | Leaching of active ingredient (in ppm) (solution dosage 0.80% o.w.f, exhaust temperature 75° C., process time 60 min): 3 ppm | Leaching of active ingredient (in ppm) (solution dosage 0.80% o.w.f, exhaust temperature 80° C., process time 60 min): 1 ppm | Leaching of active ingredient (in ppm) (solution dosage 0.80% o.w.f, exhaust temperature 85° C., process time 60 min): 7 ppm | Leaching of active ingredient (in ppm) (solution dosage 0.80% o.w.f, exhaust temperature 90° C., process time 60 min): 8 ppm | Leaching of active ingredient (in ppm) (solution dosage 0.80% o.w.f, exhaust temperature 95° C., process time 60 min): 9 ppm | Leaching of active ingredient (in ppm) (solution dosage 1.00% o.w.f, exhaust temperature 60° C., process time 60 min): 6 ppm | Leaching of active ingredient (in ppm) (solution dosage 1.00% o.w.f, exhaust temperature 65° C., process time 60 min): 6 ppm | Leaching of active ingredient (in ppm) (solution dosage 1.00% o.w.f, exhaust temperature 70° C., process time 60 min): 4 ppm | Leaching of active ingredient (in ppm) (solution dosage 1.00% o.w.f, exhaust temperature 75° C., process time 60 min): 3 ppm | Leaching of active ingredient (in ppm) (solution dosage 1.00% o.w.f, exhaust temperature 80° C., process time 60 min): 1.5 ppm | Leaching of active ingredient (in ppm) (solution dosage 1.00% o.w.f, exhaust temperature 85° C., process time 60 min): 9 ppm | Leaching of active ingredient (in ppm) (solution dosage 1.00% o.w.f, exhaust temperature 90° C., process time 60 min): 11 ppm | Leaching of active ingredient (in ppm) (solution dosage 1.00% o.w.f, exhaust temperature 95° C., process time 60 min): 12 ppm
